Experimental data published in patent publication US20230143604A1, “QW DOSING OF GIP RECEPTOR AGONIST PEPTIDE COMPOUNDS AND USES THEREOF” (TAKEDA PHARMACEUTICAL COMPANY LIMITED, priority 2020, published 2023).
Starred links: 1 amine or outer side, 2 acyl side, 3 side chain; linkers in the order of their positions; H or OH if unused. Non-standard residues stand in square brackets, D forms with d. Residues, ends and D or L forms follow the SMILES beside them. Groups on a side chain read outwards from the residue. *: point of attachment. C18 diacid = O=C(O)CCCCCCCCCCCCCCCCC(=O)*; C17 diacid = O=C(O)CCCCCCCCCCCCCCCC(=O)*; γGlu = O=C(O)[C@H](CCC(=O)[*:2])N[*:1]; AEEA = NCCOCCOCC(=O)O; Aib = CC(C)(N)C(=O)O

Assay: physchem
How it was run: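 3 mg of peptide treated with 100 μL portions of 200 mM phosphate buffer pH 7.4, sonicating/vortexing up to 1 min, with further buffer added until fully dissolved. Solubility then quantified by HPLC.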

Compound | solubility (pH 7.4) | solubility (pH 7.4, aqueous buffer)
CC[C@H](C)[C@H](NC(=O)[C@H](Cc1ccccc1)NC(=O)[C@@H](NC(=O)CNC(=O)[C@H](CCC(=O)O)NC(=O)C(C)(C)NC(=O)[C@@H](N)Cc1ccc(O)cc1)[C@@H](C)O)C(=O)N[C@@H](CO)C(=O)N[C@@H](CC(=O)O)C(=O)N[C@@H](Cc1ccc(O)cc1)C(=O)N[C@@H](CO)C(=O)N[C@H](C(=O)NC(C)(C)C(=O)N[C@@H](CC(C)C)C(=O)N[C@@H](CC(=O)O)C(=O)N[C@@H](CCCNC(=N)N)C(=O)NC(C)(C)C(=O)N[C@@H](C)C(=O)N[C@@H](CCC(N)=O)C(=O)NC(C)(C)C(=O)N[C@@H](CCCCNC(=O)COCCOCCNC(=O)COCCOCCNC(=O)CC[C@H](NC(=O)CC[C@H](NC(=O)CCCCCCCCCCCCCCCCC(=O)O)C(=O)O)C(=O)O)C(=O)N[C@@H](Cc1ccccc1)C(=O)N[C@H](C(=O)N[C@@H](CC(N)=O)C(=O)N[C@@H](Cc1c[nH]c2ccccc12)C(=O)N[C@@H](CC(C)C)C(=O)N[C@@H](CC(C)C)C(=O)N[C@@H](C)C(=O)N[C@@H](CCC(N)=O)C(=O)N[C@@H](CCCNC(=N)N)C(=O)NCC(=O)O)C(C)C)[C@@H](C)CC [Compound 141] (H-Y[Aib]EGTFISDYSI[Aib]LDR[Aib]AQ[Aib]K([AEEA-AEEA-γGlu-γGlu-C18 diacid])FVNWLLAQRG-OH) | ≥ 15 mg/mL | ≥ 30 mg/mL
CC[C@H](C)[C@H](NC(=O)[C@H](CCCCN)NC(=O)[C@H](CC(=O)O)NC(=O)[C@H](CC(C)C)NC(=O)[C@H](C)NC(=O)[C@@H](NC(=O)[C@H](CO)NC(=O)[C@H](Cc1ccc(O)cc1)NC(=O)[C@H](CC(=O)O)NC(=O)[C@H](CO)NC(=O)[C@@H](NC(=O)[C@H](Cc1ccccc1)NC(=O)[C@@H](NC(=O)CNC(=O)[C@H](CCC(=O)O)NC(=O)C(C)(C)NC(=O)[C@@H](N)Cc1ccc(O)cc1)[C@@H](C)O)[C@@H](C)CC)[C@@H](C)CC)C(=O)N[C@@H](C)C(=O)N[C@@H](CCC(N)=O)C(=O)N[C@@H](CCC(N)=O)C(=O)N[C@@H](CCCCNC(=O)COCCOCCNC(=O)COCCOCCNC(=O)CC[C@H](NC(=O)CC[C@H](NC(=O)CCCCCCCCCCCCCCCC(=O)O)C(=O)O)C(=O)O)C(=O)N[C@@H](Cc1ccccc1)C(=O)N[C@H](C(=O)N[C@@H](CCC(=O)O)C(=O)N[C@@H](Cc1c[nH]c2ccccc12)C(=O)N[C@@H](CC(C)C)C(=O)N[C@@H](CC(C)C)C(=O)N[C@@H](C)C(=O)N[C@@H](CCC(N)=O)C(=O)N[C@@H](CCCNC(=N)N)C(=O)NCC(=O)O)C(C)C [Compound 142] (H-Y[Aib]EGTFISDYSIALDKIAQQK([AEEA-AEEA-γGlu-γGlu-C17 diacid])FVEWLLAQRG-OH) | ≥ 15 mg/mL | ≥ 30 mg/mL
CC[C@H](C)[C@H](NC(=O)[C@H](CCCCN)NC(=O)[C@H](CC(=O)O)NC(=O)[C@H](CC(C)C)NC(=O)[C@H](C)NC(=O)[C@@H](NC(=O)[C@H](CO)NC(=O)[C@H](Cc1ccc(O)cc1)NC(=O)[C@H](CC(=O)O)NC(=O)[C@H](CO)NC(=O)[C@@H](NC(=O)[C@H](Cc1ccccc1)NC(=O)[C@@H](NC(=O)CNC(=O)[C@H](CCC(=O)O)NC(=O)C(C)(C)NC(=O)[C@@H](N)Cc1ccc(O)cc1)[C@@H](C)O)[C@@H](C)CC)[C@@H](C)CC)C(=O)N[C@@H](C)C(=O)N[C@@H](CCC(N)=O)C(=O)N[C@@H](CCCNC(=N)N)C(=O)N[C@@H](CCCCNC(=O)COCCOCCNC(=O)COCCOCCNC(=O)CC[C@H](NC(=O)CC[C@H](NC(=O)CCCCCCCCCCCCCCCC(=O)O)C(=O)O)C(=O)O)C(=O)N[C@@H](Cc1ccccc1)C(=O)N[C@H](C(=O)N[C@@H](CCC(=O)O)C(=O)N[C@@H](Cc1c[nH]c2ccccc12)C(=O)N[C@@H](CC(C)C)C(=O)N[C@@H](CC(C)C)C(=O)N[C@@H](C)C(=O)N[C@@H](CCC(N)=O)C(=O)N[C@@H](CCCNC(=N)N)C(=O)NCC(=O)O)C(C)C [Compound 143] (H-Y[Aib]EGTFISDYSIALDKIAQRK([AEEA-AEEA-γGlu-γGlu-C17 diacid])FVEWLLAQRG-OH) | ≥ 15 mg/mL | ≥ 30 mg/mL
CC[C@H](C)[C@H](NC(=O)[C@H](Cc1ccccc1)NC(=O)[C@@H](NC(=O)CNC(=O)[C@H](CCC(=O)O)NC(=O)C(C)(C)NC(=O)[C@@H](N)Cc1ccc(O)cc1)[C@@H](C)O)C(=O)N[C@@H](CO)C(=O)N[C@@H](CC(=O)O)C(=O)N[C@@H](Cc1ccc(O)cc1)C(=O)N[C@@H](CO)C(=O)N[C@H](C(=O)NC(C)(C)C(=O)N[C@@H](CCCCNC(=O)CNC(=O)CNC(=O)CNC(=O)CNC(=O)CNC(=O)CCCCCCCCCCCCCCCCC(=O)O)C(=O)N[C@@H](CC(=O)O)C(=O)N[C@@H](CCCNC(=N)N)C(=O)NC(C)(C)C(=O)N[C@@H](C)C(=O)N[C@@H](CCC(N)=O)C(=O)N[C@@H](CCCNC(=N)N)C(=O)N[C@@H](CC(=O)O)C(=O)N[C@@H](Cc1ccccc1)C(=O)N[C@H](C(=O)N[C@@H](CCC(=O)O)C(=O)N[C@@H](Cc1c[nH]c2ccccc12)C(=O)N[C@@H](CC(C)C)C(=O)N[C@@H](CC(C)C)C(=O)N[C@@H](C)C(=O)N[C@@H](CCC(N)=O)C(=O)N[C@@H](CCCNC(=N)N)C(=O)NCC(=O)O)C(C)C)[C@@H](C)CC [Compound 147] | ≥ 15 mg/mL | –
CC[C@H](C)[C@H](NC(=O)[C@H](Cc1ccccc1)NC(=O)[C@@H](NC(=O)CNC(=O)[C@H](CCC(=O)O)NC(=O)C(C)(C)NC(=O)[C@@H](N)Cc1ccc(O)cc1)[C@@H](C)O)C(=O)N[C@@H](CO)C(=O)N[C@@H](CC(=O)O)C(=O)N[C@@H](Cc1ccc(O)cc1)C(=O)N[C@@H](CO)C(=O)N[C@H](C(=O)NC(C)(C)C(=O)N[C@@H](CCCCNC(=O)CNC(=O)CNC(=O)CNC(=O)CNC(=O)CNC(=O)CCCCCCCCCCCCCCCCC(=O)O)C(=O)N[C@@H](CC(=O)O)C(=O)N[C@@H](CO)C(=O)N[C@@H](C)C(=O)N[C@@H](C)C(=O)N[C@@H](CCC(N)=O)C(=O)NC(C)(C)C(=O)N[C@@H](CC(=O)O)C(=O)N[C@@H](Cc1ccccc1)C(=O)N[C@H](C(=O)N[C@@H](CC(N)=O)C(=O)N[C@@H](Cc1c[nH]c2ccccc12)C(=O)N[C@@H](CC(C)C)C(=O)N[C@@H](CC(C)C)C(=O)N[C@@H](C)C(=O)N[C@@H](CCC(N)=O)C(=O)N[C@@H](CCCNC(=N)N)C(=O)NCC(=O)O)C(C)C)[C@@H](C)CC [Compound 151] | ≥ 15 mg/mL | ≥ 30 mg/mL
CC[C@H](C)[C@H](NC(=O)[C@H](CCCCN)NC(=O)[C@H](CC(=O)O)NC(=O)[C@H](CC(C)C)NC(=O)[C@H](C)NC(=O)[C@@H](NC(=O)[C@H](CO)NC(=O)[C@H](Cc1ccc(O)cc1)NC(=O)[C@H](CC(=O)O)NC(=O)[C@H](CO)NC(=O)[C@@H](NC(=O)[C@H](Cc1ccccc1)NC(=O)[C@@H](NC(=O)CNC(=O)[C@H](CCC(=O)O)NC(=O)C(C)(C)NC(=O)[C@@H](N)Cc1ccc(O)cc1)[C@@H](C)O)[C@@H](C)CC)[C@@H](C)CC)C(=O)N[C@@H](C)C(=O)N[C@@H](CCC(N)=O)C(=O)NC(C)(C)C(=O)N[C@@H](CCCCNC(=O)COCCOCCNC(=O)COCCOCCNC(=O)CC[C@H](NC(=O)CC[C@H](NC(=O)CCCCCCCCCCCCCCCCC(=O)O)C(=O)O)C(=O)O)C(=O)N[C@@H](Cc1ccccc1)C(=O)N[C@H](C(=O)N[C@@H](CCC(=O)O)C(=O)N[C@@H](Cc1c[nH]c2ccccc12)C(=O)N[C@@H](CC(C)C)C(=O)N[C@@H](CC(C)C)C(=O)N[C@@H](C)C(=O)N[C@@H](CCC(N)=O)C(=O)N[C@@H](CCCNC(=N)N)C(=O)NCC(=O)O)C(C)C [Compound 153] (H-Y[Aib]EGTFISDYSIALDKIAQ[Aib]K([AEEA-AEEA-γGlu-γGlu-C18 diacid])FVEWLLAQRG-OH) | ≥ 15 mg/mL | ≥ 30 mg/mL
CC[C@H](C)[C@H](NC(=O)[C@H](CO)NC(=O)[C@H](Cc1ccc(O)cc1)NC(=O)[C@H](CC(=O)O)NC(=O)[C@H](CO)NC(=O)[C@@H](NC(=O)[C@H](Cc1ccccc1)NC(=O)[C@@H](NC(=O)CNC(=O)[C@H](CCC(=O)O)NC(=O)C(C)(C)NC(=O)[C@@H](N)Cc1ccc(O)cc1)[C@@H](C)O)[C@@H](C)CC)C(=O)N[C@@H](C)C(=O)N[C@@H](CC(C)C)C(=O)N[C@@H](CC(=O)O)C(=O)N[C@@H](CCCCN)C(=O)N[C@@H](C)C(=O)N[C@@H](C)C(=O)N[C@@H](CCC(N)=O)C(=O)NC(C)(C)C(=O)N[C@@H](CCCCNC(=O)COCCOCCNC(=O)COCCOCCNC(=O)CC[C@H](NC(=O)CC[C@H](NC(=O)CCCCCCCCCCCCCCCCC(=O)O)C(=O)O)C(=O)O)C(=O)N[C@@H](Cc1ccccc1)C(=O)N[C@H](C(=O)N[C@@H](CCC(=O)O)C(=O)N[C@@H](Cc1c[nH]c2ccccc12)C(=O)N[C@@H](CC(C)C)C(=O)N[C@@H](CC(C)C)C(=O)N[C@@H](C)C(=O)N[C@@H](CCC(N)=O)C(=O)N[C@@H](CCCNC(=N)N)C(=O)NCC(=O)O)C(C)C [Compound 154] (H-Y[Aib]EGTFISDYSIALDKAAQ[Aib]K([AEEA-AEEA-γGlu-γGlu-C18 diacid])FVEWLLAQRG-OH) | ≥ 15 mg/mL | ≥ 30 mg/mL
CC[C@H](C)[C@H](NC(=O)[C@H](CO)NC(=O)[C@H](Cc1ccc(O)cc1)NC(=O)[C@H](CC(=O)O)NC(=O)[C@H](CO)NC(=O)[C@@H](NC(=O)[C@H](Cc1ccccc1)NC(=O)[C@@H](NC(=O)CNC(=O)[C@H](CCC(=O)O)NC(=O)C(C)(C)NC(=O)[C@@H](N)Cc1ccc(O)cc1)[C@@H](C)O)[C@@H](C)CC)C(=O)N[C@@H](C)C(=O)N[C@@H](CC(C)C)C(=O)N[C@@H](CC(=O)O)C(=O)N[C@@H](CCCCN)C(=O)NC(C)(C)C(=O)N[C@@H](C)C(=O)N[C@@H](CCC(N)=O)C(=O)N[C@@H](C)C(=O)N[C@@H](CCCCNC(=O)COCCOCCNC(=O)COCCOCCNC(=O)CC[C@H](NC(=O)CC[C@H](NC(=O)CCCCCCCCCCCCCCCCC(=O)O)C(=O)O)C(=O)O)C(=O)N[C@@H](Cc1ccccc1)C(=O)N[C@H](C(=O)N[C@@H](CCC(=O)O)C(=O)N[C@@H](Cc1c[nH]c2ccccc12)C(=O)N[C@@H](CC(C)C)C(=O)N[C@@H](CC(C)C)C(=O)N[C@@H](C)C(=O)N[C@@H](CCC(N)=O)C(=O)N[C@@H](CCCNC(=N)N)C(=O)NCC(=O)O)C(C)C [Compound 155] (H-Y[Aib]EGTFISDYSIALDK[Aib]AQAK([AEEA-AEEA-γGlu-γGlu-C18 diacid])FVEWLLAQRG-OH) | ≥ 15 mg/mL | ≥ 30 mg/mL
